In ChEMBL document CHEMBL1133163, “AMP deaminase inhibitors. 4. Further N3-substituted coformycin aglycon analogues: N3-alkylmalonates as ribose 5'-monophosphate mimetics” (J Med Chem, 2000):

Key:
AMP deaminase 3 = target: T1, AMP deaminase 3 (Homo sapiens, UniProt Q01432); assay: Inhibitory activity against porcine heart or recombinant human E-type AMPDA
T1 sequence (Q01432 whole entry): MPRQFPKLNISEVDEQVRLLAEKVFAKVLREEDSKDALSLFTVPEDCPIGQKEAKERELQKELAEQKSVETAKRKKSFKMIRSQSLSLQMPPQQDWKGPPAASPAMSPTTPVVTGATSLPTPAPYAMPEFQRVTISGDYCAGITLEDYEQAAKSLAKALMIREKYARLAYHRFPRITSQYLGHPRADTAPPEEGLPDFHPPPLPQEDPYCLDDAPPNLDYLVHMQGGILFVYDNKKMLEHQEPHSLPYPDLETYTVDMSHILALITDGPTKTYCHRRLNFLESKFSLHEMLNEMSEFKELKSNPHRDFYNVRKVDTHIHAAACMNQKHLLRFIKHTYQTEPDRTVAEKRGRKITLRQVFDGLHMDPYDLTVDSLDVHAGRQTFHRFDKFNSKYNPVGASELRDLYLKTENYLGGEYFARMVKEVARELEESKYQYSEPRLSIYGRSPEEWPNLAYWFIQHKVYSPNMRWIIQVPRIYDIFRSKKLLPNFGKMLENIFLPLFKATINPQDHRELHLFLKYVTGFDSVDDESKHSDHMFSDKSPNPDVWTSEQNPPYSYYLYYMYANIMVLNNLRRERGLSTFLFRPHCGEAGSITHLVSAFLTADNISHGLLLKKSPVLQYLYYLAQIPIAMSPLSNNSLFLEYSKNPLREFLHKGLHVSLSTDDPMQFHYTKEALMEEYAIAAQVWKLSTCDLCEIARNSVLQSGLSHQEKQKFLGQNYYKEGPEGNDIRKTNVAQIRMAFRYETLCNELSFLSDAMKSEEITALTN

Adenosine deaminase = target: T2, Adenosine deaminase (Bos taurus, UniProt P56658); assay: Inhibitory activity against calf intestinal Adenosine deaminase (ADA)
T2 sequence (P56658 whole entry): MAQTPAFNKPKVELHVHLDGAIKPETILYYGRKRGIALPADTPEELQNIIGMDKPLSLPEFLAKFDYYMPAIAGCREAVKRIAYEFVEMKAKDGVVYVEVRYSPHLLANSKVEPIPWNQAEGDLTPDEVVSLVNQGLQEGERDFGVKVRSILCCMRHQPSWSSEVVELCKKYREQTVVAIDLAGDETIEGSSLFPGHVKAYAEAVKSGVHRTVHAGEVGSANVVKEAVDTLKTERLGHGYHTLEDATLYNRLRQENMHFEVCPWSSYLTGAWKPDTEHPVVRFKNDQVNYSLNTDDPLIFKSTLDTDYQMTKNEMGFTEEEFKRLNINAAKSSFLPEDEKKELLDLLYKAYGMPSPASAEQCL

SMILES	Ki (AMP deaminase 3) [µM]	Ki (Adenosine deaminase) [µM]
CC(CCCCn1cnc2c1NC=NCC2O)(C(=O)O)C(=O)O (centres undefined)	6	> 7.5
CC(CCCCn1cnc2c1NC=NCC2O)(C(=O)OCc1ccccc1)C(=O)OCc1ccccc1 (centres undefined)	5.2	> 7.5
CCOC(=O)C(CCCCn1cnc2c1N=CNCC2O)(Cc1ccccc1)C(=O)OCC (centres undefined)	2.6	> 7.5
CCOC(=O)C(CCCCn1cnc2c1N=CNCC2O)(Cc1ccccc1C(F)(F)F)C(=O)OCC (centres undefined)	0.36	> 7.5
CC(CCCCn1cnc2c1N=CNCC2O)(C(=O)O)C(=O)NCCc1ccccc1 (centres undefined)	2.1	> 7.5
CC(CCCCn1cnc2c1NC=NCC2O)(C(N)=O)C(=O)O (centres undefined)	7.8	> 7.5
O=C(O)C(CCCCn1cnc2c1NC=NCC2O)(Cc1ccccc1C(F)(F)F)C(=O)O (centres undefined)	0.041	> 7.5
O=C(O)C(CCCCn1cnc2c1NC=NCC2O)(Cc1ccc(C(F)(F)F)cc1)C(=O)O (centres undefined)	0.04	> 7.5
CC(CCCCn1cnc2c1NC=NCC2O)(C(=O)O)C(=O)NC1CCCCC1 (centres undefined)	5.2	> 7.5
O=C(O)C(CCCCn1cnc2c1NC=NCC2O)C(=O)O (centres undefined)	5.1	> 7.5
CC(CCCCn1cnc2c1NC=NCC2O)(Cc1cccc(C(F)(F)F)c1)C(=O)O (centres undefined)	1.2	> 7.5
O=C(O)CCCCCn1cnc2c1N=CNCC2O (centres undefined)	4.2	
O=C(OCc1ccccc1)C(CCCCn1cnc2c1N=CNCC2O)(Cc1ccccc1C(F)(F)F)C(=O)OCc1ccccc1 (centres undefined)	0.25	> 7.5
O=C(O)C(CCCCn1cnc2c1NC=NCC2O)(Cc1cccc(C(F)(F)F)c1)C(=O)O (centres undefined)	0.029	> 7.5
CC(CCCCn1cnc2c1NC=NCC2O)(C(=O)O)C(=O)OCc1ccccc1 (centres undefined)	0.9	> 7.5
CCOC(=O)C(C)(CCCCn1cnc2c1NC=NCC2O)C(=O)OCC (centres undefined)	44.8	> 500
O=C(O)C(CCCCn1cnc2c1N=CNCC2O)C(=O)NCc1ccc(Cl)cc1 (centres undefined)	1.3	> 7.5
O=C(O)C(CCCCn1cnc2c1N=CNCC2O)C(=O)NCc1ccccc1 (centres undefined)	2.4	> 7.5
O=C(O)C(CCCCn1cnc2c1N=CNCC2O)C(=O)OCc1ccccc1 (centres undefined)	0.36	> 7.5
O=C(O)C(CCCCn1cnc2c1N=CNCC2O)(Cc1ccccc1)C(=O)O (centres undefined)	0.17	> 7.5
